The nature of data set [1]: Encapsulation efficiency of drug in PMC of Example I by dialysis and UV/Vis absorbance. The class given is physicochemical. Conditions: PMC from Example I; dialysis 10,000 MWCO; tris buffer (pH 7.4) given for Drug A only. The method, then:
(§1) The polymer is dissolved in deionized water or an aqueous buffer at a concentration of 0.010 g/mL. Drugs A is dissolved in DMSO at a concentration of 5 μg/μl. Drug A is added dropwise to the polymer solution with constant stirring at room temperature. The drugs are added over the course of 60 minutes resulting in a 2-5 fold molar excess over polymer. The solution is centrifuged to remove any precipitates and transferred to dialysis tubing with 10,000 MWCO. The solution is dialyzed against an aqueous buffer (50× volume) for 30 minutes.
(§2) The absorbance of the polymer-drug solution and dialysis buffer are recorded and compared to respective pre-dialysis samples by a UV/Vis spectrophotometer (polymer absorbance=280 nm; Drug A absorbance=450 nm). The encapsulation efficiency is calculated from the change in absorbance of the drug after this initial dialysis. The polymer-drug solution is dialyzed further with fresh buffer (50× volume) with multiple readings over the course of 72 hours with 4 buffer changes. The rate at which the drug is released from the polymeric micelle is calculated by the change in absorbance of the drug over time from the polymer-drug solution and dialysis buffer.
(§3) Encapsulation of Drug B is carried out by the same dialysis procedure as described in Example III for Drug A. Drug B is dissolved in DMSO to a stock solution of 2.5 mg/ml. […]

Data set [2] can be described thus: Release of drug from the polymeric micelle during dialysis, by change in absorbance. It counts as physicochemical. Conditions: PMC from Example I; 24 hours dialysis; tris buffer (pH 7.4) given for Drug A only. The method, then:
as §1, §2, §3

1 compound from patent publication US20180344639A1, “HYPOXIA-TARGETED POLYMERIC MICELLES FOR CANCER THERAPY AND IMAGING” (priority 2012, published 2018) can be followed below.

For the compound `CCCNC(=O)c1c(C)[nH]c(/C=C2\C(=O)Nc3ccc(F)cc32)c1C` [Drug A], in data set [1], the Encapsulation efficiency result is on record as “greater than 80%”. Besides, the drug released in data set [2] stood at 50%.
